Key:
[1] = test system: KB; assay: Antiproliferative activity against human KB cells; assay type: functional, cell-based
[2] = test system: HepG2; assay: Antiproliferative activity against human HepG2 cells; assay type: functional, cell-based
[3] = test system: A549; assay: Antiproliferative activity against human A549 cells; assay type: functional, cell-based
[4] = Cytotoxicity against human HEK293 cells; assay type: toxicity, cell-based
[5] = Selectivity ratio of IC50 for human HEK293 cells to IC50 for human KB cells; assay type: toxicity; conditions: HEK293 cells versus KB cells, read-out: Ratio IC50
[6] = Selectivity ratio of IC50 for human HEK293 cells to IC50 for human HepG2 cells; assay type: toxicity; conditions: HEK293 cells versus HepG2 cells, read-out: Ratio IC50
[7] = Selectivity ratio of IC50 for human HEK293 cells to IC50 for human A549 cells; assay type: toxicity; conditions: HEK293 cells versus A549 cells, read-out: Ratio IC50

Compound: C[C@@H]1CC[C@H]2[C@@H](C)C(=O)N(Cc3cn(-c4cccc(F)c4)nn3)[C@@H]3O[C@@]4(C)CC[C@@H]1[C@@]23OO4
- IC50 [1]: > 280 µM
- IC50 [2]: > 280 µM
- IC50 [3]: > 280 µM

Compound: C[C@@H]1CC[C@H]2[C@@H](C)C(=O)N(Cc3cn(-c4ccc(Br)cc4)nn3)[C@@H]3O[C@@]4(C)CC[C@@H]1[C@@]23OO4
- IC50 [1]: 26.4 µM
- IC50 [2]: 34.9 µM
- IC50 [3]: 45.9 µM

Compound: C[C@@H]1CC[C@H]2[C@@H](C)C(=O)N(Cc3cn(-c4ccccc4Br)nn3)[C@@H]3O[C@@]4(C)CC[C@@H]1[C@@]23OO4
- IC50 [1]: 32.3 µM
- IC50 [2]: 42.5 µM
- IC50 [3]: 32.9 µM

Compound: C[C@@H]1CC[C@H]2[C@@H](C)C(=O)N(Cc3cn(-c4cccc(I)c4)nn3)[C@@H]3O[C@@]4(C)CC[C@@H]1[C@@]23OO4
- IC50 [1]: 10.6 µM
- IC50 [2]: 9.4 µM
- IC50 [3]: 135 µM
- IC50 [4]: 46.3 µM
- selectivity ratio [5]: 4
- selectivity ratio [6]: 5

Compound: C[C@@H]1CC[C@H]2[C@@H](C)C(=O)N(Cc3cn(-c4cccc(Cl)c4)nn3)[C@@H]3O[C@@]4(C)CC[C@@H]1[C@@]23OO4
- IC50 [1]: 235 µM
- IC50 [2]: 215 µM
- IC50 [3]: 151 µM

Compound: C[C@@H]1CC[C@H]2[C@@H](C)C(=O)N(Cc3cn(-c4ccc(I)cc4)nn3)[C@@H]3O[C@@]4(C)CC[C@@H]1[C@@]23OO4
- IC50 [1]: 10.3 µM
- IC50 [2]: 31.3 µM
- IC50 [3]: 9.2 µM
- IC50 [4]: 12.4 µM

Compound: Cc1c2ccncc2c(C)c2c1[nH]c1ccccc12 [ELLIPTECINE]
- IC50 [1]: 1.7 µM
- IC50 [2]: 1.7 µM
- IC50 [3]: 1.7 µM
- IC50 [4]: 6.3 µM

Compound: C[C@@H]1CC[C@H]2[C@@H](C)C(=O)N(Cc3cn(-c4ccccc4I)nn3)[C@@H]3O[C@@]4(C)CC[C@@H]1[C@@]23OO4
- IC50 [1]: 34.1 µM
- IC50 [2]: 49.3 µM
- IC50 [3]: 27.7 µM

Compound: C[C@@H]1CC[C@H]2[C@@H](C)C(=O)N(Cc3cn(-c4cccc(Br)c4)nn3)[C@@H]3O[C@@]4(C)CC[C@@H]1[C@@]23OO4
- IC50 [1]: 7.7 µM
- IC50 [2]: 42.5 µM
- IC50 [3]: 15.5 µM
- IC50 [4]: > 247 µM
- selectivity ratio [5]: 32
- selectivity ratio [6]: 6
- selectivity ratio [7]: 16
